Data as given in patent US10918624B2, “Anti-cancer azole compounds” (Imam Abdulrahman Bin Faisal University, priority 2019, dated 2021).
“Also recorded” adds a separate entry of the source.

What was measured:
HCT-116 cells [1] = test: Cancer cell morphology (inverted microscope); type: cell-based, human; conditions: for cancer cell morphology change: 48 hours, HCT-116; for microscopic evaluation of treated cancer cells (overall): HCT-116, versus control
Description: Three samples were examined from each experiment.

HCT-116 cells [2] = test: Cancer cells viability by MTT assay; conditions: for cancer cell viability (% of control) / effect on cancer cells survivability (in words): 48 hrs; for cancer cell viability (% of control) / effect on cancer cells survivability (in words) / attenuating cancer cells proliferation (in words): HCT-116; for effect on cancer cells survivability (in words): 100, 500 and 750 ug/mL; for dose dependence of effect on cancer cell survivability: HCT-116, FIG. 11
Description: HCT-116 cells were grown as previously described method by Khan et al. [“Fluorescent magnetic submicronic polymer (FMSP) nanoparticles induce cell death in human colorectal carcinoma cells” Artif Cells Nanomed Biotechnol. (2018 Jul. 25) 1-7, doi: 10.1080/21691401.2018.1491476]. In brief, HCT-116 cells were grown in the DMEM, 10% fetal bovine serum, L-glutamine, selenium chloride, penicillin, and streptomycin. The cells were culture in incubator (Heracell 150i, Thermo-scientific, USA) containing 5% CO2 at 37°. Finally, confluence cells were seeded into 96-well cell plates and once the cells become 80% confluence, the cancer cells were treated with different concentrations (100 μg/mL, 500 μg/mL and 750 μg/mL) of BG-(Tri)2, BG-(ATri)2, BG-(Atet)2, BG-(Imi)2, BG-(H3PO4)2, respectively. Thereafter, the treated cancer cells were microscopically monitored after 24 hrs and 48 hrs intervals. Three samples were examined from each experiment.
The effects of BG-(Tri)2, BG-(ATri)2, BG-(Atet)2, BG-(Imi)2, BG-(H3PO4)2 on cancer cells were determined by MTT assay. The cancer cells were seeded with 6×10^4 cells/mL in 96-well culture plates containing DMEM, 10% Fetal bovine serum, penicillin, and streptomycin and were incubated in CO2 incubator till they become 80% confluence. Then, cancer cells were treated with BG-(Tri)2, BG-(ATri)2, BG-(Atet)2, BG-(Imi)2, BG-(H3PO4)2 at concentrations of 100 μg/mL, 500 μg/mL and 750 μg/mL, respectively. […] MTT (5.0 mg/mL) solution was added in each well and cells were again incubated for 4 hrs in the CO2 incubator and finally media was changed with the addition of DMSO. The color intensity of each sample was measured using an ELISA plate reader (Biotek Instruments, USA) at wavelength 570 nm.
The following formula was used to calculate percentage of cell viability: % of Cell viability=Optical density (O.D) of BG-(Tri)2,BG-(ATri)2,BG-(Atet)2,BG-(Imi)2,BG-(H3PO4)2 cells/Optical density (O.D) of control cells×100 Statistical Analysis:
The mean±standard deviation (SD) from control and BG-(Tri)2, BG-(ATri)2, BG-(Atet)2, BG-(Imi)2, BG-(H3PO4)2 treated groups were calculated. All statistical analyses were completed with GraphPad Prism 6 (GraphPad Software). The difference between control and BG-(Tri)2, BG-(ATri)2, BG-(Atet)2, BG-(Imi)2, BG-(H3PO4)2 groups by a one-way ANOVA test (P<0.05). P<0.05 was considered as statistically significant.

[3] = Thermogravimetric analyses (TGA); type: physicochemical; conditions: 25° C. to 700° C., 10° C. min, nitrogen
Description: TGA were carried on Perkin-Elmer, simultaneous thermal analyzer (STA6000, PerkinElmer, Ohio, USA). TGA data of azole-BG samples were obtained at temperature in the range of 25° C. to 700° C. at the rate of 10° C. min under inert nitrogen flowing at a rate of 20 mL/min.

OC(CNc1ncn[nH]1)COCCCCOCC(O)CNc1ncn[nH]1 (stereo not drawn) [BG-(ATri)2]
cancer cell morphology change (HCT-116 cells [1]; 100 μg/mL): significant levels of nucleus condensation and nuclear augmentation | cancer cell morphology change (HCT-116 cells [1]; 500 μg/mL): nuclear condensation and augmentation | cancer cell morphology change (HCT-116 cells [1]; 750 μg/mL): Significant loss of cell population; also recorded: strong nuclear condensation and augmentation and showed the beginning of cell membrane disruption | microscopic evaluation of treated cancer cells (overall) (HCT-116 cells [1]): not only affected the cancer cell membrane, but also induced nuclear condensation, augmentation and disintegration | cancer cell viability (% of control) (HCT-116 cells [2]; 100 ug/mL): 28.12% | cancer cell viability (% of control) (HCT-116 cells [2]; 500 ug/mL): 25.62% | cancer cell viability (% of control) (HCT-116 cells [2]; 750 ug/mL): 24.68% | effect on cancer cells survivability (in words) (HCT-116 cells [2]): most profound effects on the cancer cells; also recorded: profound effects on cancer cells survivability | attenuating cancer cells proliferation (in words) (HCT-116 cells [2]): highly effective in attenuating cancer cells proliferation | dose dependence of effect on cancer cell survivability (HCT-116 cells [2]): dose dependent effects on cancer cell survivability

OC(CNc1nnn[nH]1)COCCCCOCC(O)CNc1nnn[nH]1 (stereo not drawn) [BG-(Atet)2]
cancer cell morphology change (HCT-116 cells [1]; 100 μg/mL): strong nucleus condensation and nuclear augmentation | cancer cell morphology change (HCT-116 cells [1]; 500 μg/mL): Further nucleus condensation and augmentation | cancer cell morphology change (HCT-116 cells [1]; 500 μg/mL, listed as BG-(ATet)2): nuclear condensation and augmentation | cancer cell morphology change (HCT-116 cells [1]; 750 μg/mL): significant loss of cell population | cancer cell morphology change (HCT-116 cells [1]; 750 μg/mL, listed as BG-(ATet)2): strong nuclear condensation and augmentation and showed the beginning of cell membrane disruption | microscopic evaluation of treated cancer cells (overall) (HCT-116 cells [1]): not only affected the cancer cell membrane, but also induced nuclear condensation, augmentation and disintegration | cancer cell viability (% of control) (HCT-116 cells [2]; 100 ug/mL): 25% | cancer cell viability (% of control) (HCT-116 cells [2]; 500 ug/mL): 22.50% | cancer cell viability (% of control) (HCT-116 cells [2]; 750 ug/mL): 18.75% | effect on cancer cells survivability (in words) (HCT-116 cells [2]): most profound effects on the cancer cells; also recorded: profound effects on cancer cells survivability | attenuating cancer cells proliferation (in words) (HCT-116 cells [2]): highly effective in attenuating cancer cells proliferation | dose dependence of effect on cancer cell survivability (HCT-116 cells [2]): dose dependent effects on cancer cell survivability

O=P(O)(O)OCC(O)COCCCCOCC(O)COP(=O)(O)O (stereo not drawn) [BG-(H3PO4)2]
cancer cell morphology change (HCT-116 cells [1]; 100 μg/mL): disintegrations of cancer cells | cancer cell morphology change (HCT-116 cells [1]; 500 μg/mL): strong nuclear condensation and augmentation | cancer cell morphology change (HCT-116 cells [1]; 500 μg/mL, listed as BG-(H3PO4)): nuclear condensation and augmentation | cancer cell morphology change (HCT-116 cells [1]; 750 μg/mL): strong nuclear condensation and augmentation | cancer cell morphology change (HCT-116 cells [1]; 750 μg/mL, listed as BG-(H3PO4)): strong nuclear condensation and augmentation and showed the beginning of cell membrane disruption | microscopic evaluation of treated cancer cells (overall) (HCT-116 cells [1]): not only affected the cancer cell membrane, but also induced nuclear condensation, augmentation and disintegration | temperature of weight loss / degradation by TGA [3]: Above 200 °C | cancer cell viability (% of control) (HCT-116 cells [2]; 100 ug/mL): 85.31% | cancer cell viability (% of control) (HCT-116 cells [2]; 500 ug/mL): 55.93% | cancer cell viability (% of control) (HCT-116 cells [2]; 750 ug/mL): 53.12% | effect on cancer cells survivability (in words) (HCT-116 cells [2]): profound effects on cancer cells survivability | dose dependence of effect on cancer cell survivability (HCT-116 cells [2]): dose dependent effects on cancer cell survivability

OC(COCCCCOCC(O)Cn1ccnc1)Cn1ccnc1 (stereo not drawn) [BG-(Imi)2]
cancer cell morphology change (HCT-116 cells [1]; 100 μg/mL): strong nucleus condensation and nuclear augmentation | cancer cell morphology change (HCT-116 cells [1]; 500 μg/mL): further nucleus condensation and augmentation; also recorded: nuclear condensation and augmentation | cancer cell morphology change (HCT-116 cells [1]; 750 μg/mL): significant loss of cell population; also recorded: strong nuclear condensation and augmentation and showed the beginning of cell membrane disruption | microscopic evaluation of treated cancer cells (overall) (HCT-116 cells [1]): not only affected the cancer cell membrane, but also induced nuclear condensation, augmentation and disintegration | cancer cell viability (% of control) (HCT-116 cells [2]; 100 ug/mL): 25% | cancer cell viability (% of control) (HCT-116 cells [2]; 500 ug/mL): 21.87% | cancer cell viability (% of control) (HCT-116 cells [2]; 750 ug/mL): 18.75% | effect on cancer cells survivability (in words) (HCT-116 cells [2]): most profound effects on the cancer cells; also recorded: profound effects on cancer cells survivability | attenuating cancer cells proliferation (in words) (HCT-116 cells [2]): highly effective in attenuating cancer cells proliferation | dose dependence of effect on cancer cell survivability (HCT-116 cells [2]): dose dependent effects on cancer cell survivability

OC(COCCCCOCC(O)Cn1cncn1)Cn1cncn1 (stereo not drawn) [BG-(Tri)2]
cancer cell morphology change (HCT-116 cells [1]; 100 μg/mL): moderate levels of nucleus condensation and nuclear augmentation | cancer cell morphology change (HCT-116 cells [1]; 500 μg/mL): Strong nuclear condensation and augmentation and the beginning of cell membrane disruption | cancer cell morphology change (HCT-116 cells [1]; 750 μg/mL): significant loss of cell population; also recorded: nuclear condensation and augmentation | microscopic evaluation of treated cancer cells (overall) (HCT-116 cells [1]): not only affected the cancer cell membrane, but also induced nuclear condensation, augmentation and disintegration | cancer cell viability (% of control) (HCT-116 cells [2]; 100 ug/mL): 75% | cancer cell viability (% of control) (HCT-116 cells [2]; 500 ug/mL): 26.86% | cancer cell viability (% of control) (HCT-116 cells [2]; 750 ug/mL): 21.87% | effect on cancer cells survivability (in words) (HCT-116 cells [2]): most profound effects on the cancer cells; also recorded: profound effects on cancer cells survivability | attenuating cancer cells proliferation (in words) (HCT-116 cells [2]): highly effective in attenuating cancer cells proliferation | dose dependence of effect on cancer cell survivability (HCT-116 cells [2]): dose dependent effects on cancer cell survivability
